Laboratory results: the NIST ThermoML archive (doi:10.1021/acs.jced.8b00008)

Test: xn = mol fraction of the nth substance listed
Settings: for surface tension liquid-gas: 293 K, Pendant drop shape; for viscosity / speed of sound / mass density: 102 kPa, Liquid; for viscosity: Concentric cylinders viscometry; for speed of sound: Single path-length method; for mass density: Vibrating tube method

CCCCCCCCCCCCCCCC [hexadecane] + CC1CCCCC1
Settings | surface tension liquid-gas [mN/m]
x2 = 0.1018 | 26.8
x2 = 0.2 | 26.7
x2 = 0.3 | 26.4
x2 = 0.4004 | 26.2
x2 = 0.4999 | 26
x2 = 0.6 | 25.5
x2 = 0.7 | 25.2
x2 = 0.8 | 24.7
x2 = 0.9 | 24.3

Settings | mass density [kg/m3] | speed of sound [m/s] | viscosity [mPa·s]
293.15 K, x2 = 0.1018 | 773 | 1350.5 | 3.14
293.15 K, x2 = 0.2 | 772.68 | 1343.5 | 2.83
293.15 K, x2 = 0.3 | 772.21 | 1334.5 | 2.54
293.15 K, x2 = 0.4004 | 771.85 | 1325.6 | 2.24
293.15 K, x2 = 0.4999 | 771.43 | 1316.2 | 1.96
293.15 K, x2 = 0.6 | 770.99 | 1303.5 | 1.68
293.15 K, x2 = 0.7 | 770.52 | 1289.9 | 1.42
293.15 K, x2 = 0.8 | 770.06 | 1274.4 | 1.174
293.15 K, x2 = 0.9 | 769.64 | 1256.8 | 0.943
298.15 K, x2 = 0.1018 | 769.51 | 1331.5 | 2.81
298.15 K, x2 = 0.2 | 769.17 | 1324.6 | 2.54
298.15 K, x2 = 0.3 | 768.68 | 1315.4 | 2.29
298.15 K, x2 = 0.4004 | 768.28 | 1306.5 | 2.03
298.15 K, x2 = 0.4999 | 767.82 | 1297.4 | 1.79
298.15 K, x2 = 0.6 | 767.29 | 1284.3 | 1.54
298.15 K, x2 = 0.7 | 766.75 | 1270.5 | 1.31
298.15 K, x2 = 0.8 | 766.16 | 1254.1 | 1.084
298.15 K, x2 = 0.9 | 765.56 | 1236 | 0.892
303.15 K, x2 = 0.1018 | 766.03 | 1312.7 | 2.52
303.15 K, x2 = 0.2 | 765.67 | 1306 | 2.29
303.15 K, x2 = 0.3 | 765.15 | 1296.5 | 2.08
303.15 K, x2 = 0.4004 | 764.7 | 1287.5 | 1.85
303.15 K, x2 = 0.4999 | 764.21 | 1278.4 | 1.65
303.15 K, x2 = 0.6 | 763.6 | 1265 | 1.43
303.15 K, x2 = 0.7 | 762.96 | 1250.9 | 1.22
303.15 K, x2 = 0.8 | 762.24 | 1233.9 | 1.012
303.15 K, x2 = 0.9 | 761.47 | 1215.2 | 0.82
313.15 K, x2 = 0.1018 | 759.08 | 1275.9 | 2.06
313.15 K, x2 = 0.2 | 758.66 | 1269.1 | 1.89
313.15 K, x2 = 0.3 | 758.08 | 1259.4 | 1.72
313.15 K, x2 = 0.4004 | 757.54 | 1250.2 | 1.55
313.15 K, x2 = 0.4999 | 756.95 | 1240.7 | 1.38
313.15 K, x2 = 0.6 | 756.18 | 1226.9 | 1.2
313.15 K, x2 = 0.7 | 755.37 | 1212.1 | 1.03
313.15 K, x2 = 0.8 | 754.38 | 1194.1 | 0.906
313.15 K, x2 = 0.9 | 753.24 | 1174.1 | 0.739
323.15 K, x2 = 0.1018 | 752.12 | 1239.9 | 1.72
323.15 K, x2 = 0.2 | 751.64 | 1233 | 1.58
323.15 K, x2 = 0.3 | 751 | 1223 | 1.45
323.15 K, x2 = 0.4004 | 750.36 | 1213.5 | 1.31
323.15 K, x2 = 0.4999 | 749.66 | 1203.7 | 1.2
323.15 K, x2 = 0.6 | 748.73 | 1189.3 | 1.05
323.15 K, x2 = 0.7 | 747.73 | 1173.8 | 0.91
323.15 K, x2 = 0.8 | 746.47 | 1154.9 | 0.768
323.15 K, x2 = 0.9 | 744.96 | 1133.7 | 0.629
333.15 K, x2 = 0.1018 | 745.15 | 1204.9 | 1.46
333.15 K, x2 = 0.2 | 744.61 | 1197.7 | 1.35
333.15 K, x2 = 0.3 | 743.89 | 1187.7 | 1.24
333.15 K, x2 = 0.4004 | 743.16 | 1177.8 | 1.16
333.15 K, x2 = 0.4999 | 742.34 | 1167.2 | 1.04
333.15 K, x2 = 0.6 | 741.25 | 1152.3 | 0.924
333.15 K, x2 = 0.7 | 740.03 | 1136 | 0.801
333.15 K, x2 = 0.8 | 738.5 | 1116.2 | 0.68
333.15 K, x2 = 0.9 | 736.61 | 1094.2 | 0.558
